Patent publication US5506217A, “Phosphonates as anti-cancer agents” (The University of British Columbia, priority 1994, dated 1996)

How the values were obtained:
[1] = system: human melanoma cell line (RPMI-7951); assay: RPMI-7951 melanoma growth and metastasis in nude mice, topical treatment; type: in vivo; conditions: topically twice a day, emulsion of 80 mg/mL; RPMI-7951 intradermal in nude mice
Procedure: Similar studies were also performed with a human melanoma cell line (RPMI-7951) grown in nude mice. Mice injected with RPMI-7951 cell line intradermally developed tumors. When the mice were treated topically, twice a day, with an emulsion of 80 mg/mL of the phosphonate compound of the formula shown above (compound VIII), the growth and metastasis of tumors were retarded by approximately 60%.

[2] = system: JRT3T3, a human T-cell lymphoma; assay: colonogenic cell survival assay; type: cell-based; conditions: 120 h, read-out: Colonies formed after 5-days (% of control)
Procedure: (§1) Inhibition of colony formation in soft agar medium (colonogenic cell survival assay) is a more rigorous and direct measurement of cell kill or growth inhibition, and reflects the anti-cancer activity of the test compound. Briefly, tumor cells were cultured in petri dishes in methylcellulose, with or without a phosphonate test compound, and the number of colonies formed during a 5-day incubation period were counted.
(§2) The anti-cancer activity of the phosphonate of the following formula: [drawing 16] against human leukemia and lymphoma was also studied using the colonogenic cell survival assay. DHL4, a human B cell lymphoma; HeL, a human erythroid leukemia: JRT3T3, a human T-cell lymphoma; and KG 1α, a human mycloid leukemia, were evaluated for their sensitivity to the cytotoxic activity of the phosphonate of the above formula (compound VIII).

[3] = system: HeL, a human erythroid leukemia; assay: colonogenic cell survival assay; type: cell-based; conditions: 120 h, read-out: Colonies formed after 5-days (% of control)
Procedure: as §1, §2

[4] = system: KG1α, a human myeloid leukemia; assay: colonogenic cell survival assay; type: cell-based; conditions: KG-1a, 120 h, read-out: Colonies formed after 5-days (% of control)
Procedure: as §1, §2

[5] = system: DHL4, a human B cell lymphoma; assay: colonogenic cell survival assay; type: cell-based; conditions: 120 h, read-out: Colonies formed after 5-days (% of control)
Procedure: as §1, §2

## CCCCCCCCCCCCCCCCOCC(CCP(=O)([O-])OCC[N+](C)(C)C)OC (stereo not shown) [compound VIII]
[1]
  retardation of growth and metastasis of tumors: approximately 60%
[2]; 1.25 μM
  activity at 1.25 µM: 87 ± 6%
[2]; 2.5 μM
  activity at 2.5 µM: 65 ± 7%
[2]; 5 μM
  activity at 5 µM: 34 ± 5%
[2]; 10 μM
  activity at 10 µM: 20 ± 3%
[2]; 20 μM
  activity at 20 µM: 8 ± 2%
[2]; 40 μM
  activity at 40 µM: 3 ± 1%
[3]; 1.25 μM
  activity at 1.25 µM: 91 ± 8%
[3]; 2.5 μM
  activity at 2.5 µM: 72 ± 5%
[3]; 5 μM
  activity at 5 µM: 58 ± 4%
[3]; 10 μM
  activity at 10 µM: 26 ± 5%
[3]; 20 μM
  activity at 20 µM: 12 ± 3%
[3]; 40 μM
  activity at 40 µM: 1 ± 0.5%
[4]; 1.25 μM
  activity at 1.25 µM: 78 ± 8%
[4]; 2.5 μM
  activity at 2.5 µM: 56 ± 6%
[4]; 5 μM
  activity at 5 µM: 41 ± 4%
[4]; 10 μM
  activity at 10 µM: 15 ± 3%
[4]; 20 μM
  activity at 20 µM: 7 ± 1%
[4]; 40 μM
  activity at 40 µM: 4 ± 1%
[5]; 1.25 μM
  activity at 1.25 µM: 76 ± 7%
[5]; 2.5 μM
  activity at 2.5 µM: 61 ± 5%
[5]; 5 μM
  activity at 5 µM: 42 ± 6%
[5]; 10 μM
  activity at 10 µM: 18 ± 4%
[5]; 20 μM
  activity at 20 µM: 5 ± 1%
[5]; 40 μM
  activity at 40 µM: 0%
